Laboratory results reported in patent US7034053B2, “Phenethanolamine derivatives, compositions, and their use as agonists at atypical beta-adrenoreceptors” (SmithKline Beecham Corporation, priority 2001, dated 2006).

Structure (SMILES)	melting point
O=C(O)c1ccsc1-c1cccc(NCCNC[C@H](O)c2cccc(Cl)c2)c1 [Example 5, 2-(3-{[2-(3-Chlorophenyl)-2R-hydroxyl-ethylamino]ethylamino}phenyl)thiophene-3-carboxylic acid]	275 °C (dec.)
O=C(O)c1ccoc1-c1cccc(NCCNC[C@H](O)c2cccc(Cl)c2)c1 [Example 2, 2-(3-{[2-(3-Chlorophenyl)-2R-hydroxyl-ethylamino]ethylamino}phenyl)furan-3-carboxylic acid]	250 °C (dec.)
